Molecules are shown by their SMILES.

By Ki is commonly meant a dissociation constant, usually derived from enzyme kinetics or from competition with a known ligand. A low value points to a stronger hold on the target.

In this test the target is Carbonic anhydrase 1 (Homo sapiens, UniProt P00915).
Carbonic anhydrase 1, sequence (P00915 whole entry): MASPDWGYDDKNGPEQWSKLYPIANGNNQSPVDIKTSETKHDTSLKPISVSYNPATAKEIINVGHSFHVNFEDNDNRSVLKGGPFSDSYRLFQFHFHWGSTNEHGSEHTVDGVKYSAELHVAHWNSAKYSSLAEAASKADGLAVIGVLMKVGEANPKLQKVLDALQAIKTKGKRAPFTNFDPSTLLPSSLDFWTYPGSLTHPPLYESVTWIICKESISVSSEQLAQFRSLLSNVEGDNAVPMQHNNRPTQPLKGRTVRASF

Turning to `O=[Se](=O)(O)O` [SODIUM SELENATE], the Ki was found to be 570 µM.
